Measurements from ChEMBL document CHEMBL1909538, “Iodine-catalyzed conjugate addition of indoles onto en-1,4-dione: a novel synthesis of 3-(1-(1H-indol-3-yl)-2-oxo-2-phenylethyl)indolin-2-ones as antibacterial and antifungal agents” (2011).
≈ marks a conversion by molar mass, not a printed value.

Key:
Candida albicans [1] = test: Antifungal activity against Candida albicans MTCC 227 at 50 ug after 48 hrs by agar well diffusion method; format: functional; settings: MTCC 227, 48 h, read-out: DIZ
Diutina rugosa [2] = test: Antifungal activity against Candida rugosa at 50 ug after 48 hrs by agar well diffusion method; format: functional; settings: read-out: DIZ
Saccharomyces cerevisiae [3] = test: Antifungal activity against Saccharomyces cerevisiae MTCC 36 at 50 ug after 48 hrs by agar well diffusion method; format: functional; settings: MTCC 36, 48 h, read-out: DIZ
Aspergillus flavus [4] = test: Antifungal activity against Aspergillus flavus at 50 ug after 48 hrs by agar well diffusion method; settings: read-out: DIZ
Escherichia coli = test: Antimicrobial activity against Escherichia coli MTCC 443 by broth dilution method; format: functional
Pseudomonas aeruginosa = test: Antimicrobial activity against Pseudomonas aeruginosa MTCC 741 by broth dilution method; format: functional
Klebsiella pneumoniae = test: Antimicrobial activity against Klebsiella pneumoniae MTCC 618 by broth dilution method; format: functional
Candida albicans [5] = test: Antifungal activity against Candida albicans MTCC 227 at 100 ug after 48 hrs by agar well diffusion method; format: functional; settings: MTCC 227, 48 h, read-out: DIZ
Diutina rugosa [6] = test: Antifungal activity against Candida rugosa at 100 ug after 48 hrs by agar well diffusion method; format: functional; settings: read-out: DIZ
Saccharomyces cerevisiae [7] = test: Antifungal activity against Saccharomyces cerevisiae MTCC 36 at 100 ug after 48 hrs by agar well diffusion method; format: functional; settings: MTCC 36, 48 h, read-out: DIZ
Candida albicans [8] = test: Antifungal activity against Candida albicans MTCC 227 at 150 ug after 48 hrs by agar well diffusion method; format: functional; settings: MTCC 227, 48 h, read-out: DIZ
Diutina rugosa [9] = test: Antifungal activity against Candida rugosa at 150 ug after 48 hrs by agar well diffusion method; format: functional; settings: read-out: DIZ
Saccharomyces cerevisiae [10] = test: Antifungal activity against Saccharomyces cerevisiae MTCC 36 at 150 ug after 48 hrs by agar well diffusion method; format: functional; settings: MTCC 36, 48 h, read-out: DIZ
Bacillus subtilis = test: Antimicrobial activity against Bacillus subtilis MTCC 441 by broth dilution method; format: functional
Staphylococcus aureus = test: Antimicrobial activity against Staphylococcus aureus MTCC 96 by broth dilution method; format: functional
[11] = test system: Staphylococcus epidermidis; test: Antimicrobial activity against Staphylococcus epidermidis by broth dilution method; format: functional
Aspergillus flavus [12] = test: Antifungal activity against Aspergillus flavus at 100 ug after 48 hrs by agar well diffusion method; settings: read-out: DIZ
Aspergillus flavus [13] = test: Antifungal activity against Aspergillus flavus at 150 ug after 48 hrs by agar well diffusion method; settings: read-out: DIZ

Compound | MIC (Escherichia coli) | MIC (Pseudomonas aeruginosa) | MIC (Klebsiella pneumoniae) | MIC (Bacillus subtilis) | MIC (Staphylococcus aureus) | MIC [11] | zone of inhibition at 50 µg/disc (Candida albicans [1]) | zone of inhibition at 50 µg/disc (Diutina rugosa [2]) | zone of inhibition at 50 µg/disc (Saccharomyces cerevisiae [3]) | zone of inhibition at 50 µg/disc (Aspergillus flavus [4]) | zone of inhibition at 100 µg/disc (Candida albicans [5]) | zone of inhibition at 100 µg/disc (Diutina rugosa [6]) | zone of inhibition at 100 µg/disc (Saccharomyces cerevisiae [7]) | zone of inhibition at 150 µg/disc (Candida albicans [8]) | zone of inhibition at 150 µg/disc (Diutina rugosa [9]) | zone of inhibition at 150 µg/disc (Saccharomyces cerevisiae [10]) | zone of inhibition at 100 µg/disc (Aspergillus flavus [12]) | zone of inhibition at 150 µg/disc (Aspergillus flavus [13])
C[C@@H]1[C@H](O)[C@@H](C)/C=C/C=C/C=C/C=C/C=C/C=C/C=C/[C@H](O[C@@H]2O[C@H](C)[C@@H](O)[C@H](N)[C@@H]2O)C[C@@H]2O[C@](O)(C[C@@H](O)C[C@@H](O)[C@H](O)CC[C@@H](O)C[C@@H](O)CC(=O)O[C@H]1C)C[C@H](O)[C@H]2C(=O)O [AMPHOTERICIN B] | – | – | – | – | – | – | 23.5 mm | 21 mm | 22 mm | 25 mm | – | – | – | – | – | – | – | –
N#Cc1ccc2[nH]cc(C(C(=O)c3ccccc3)C3C(=O)Nc4ccccc43)c2c1 (stereo unspecified) | 150 mg/L (≈ 383 µM) | 150 mg/L (≈ 383 µM) | 150 mg/L (≈ 383 µM) | 150 mg/L (≈ 383 µM) | 150 mg/L (≈ 383 µM) | 150 mg/L (≈ 383 µM) | – | – | – | – | 0 mm | 8 mm | 0 mm | 0 mm | 11 mm | 0 mm | 0 mm | 0 mm
O=C1Nc2ccccc2C1C(C(=O)c1ccccc1)c1c[nH]c2ccc(Cl)cc12 (stereo unspecified) | 150 mg/L (≈ 374 µM) | 9.38 mg/L (≈ 23.4 µM) | 150 mg/L (≈ 374 µM) | 150 mg/L (≈ 374 µM) | 18.8 mg/L (≈ 46.8 µM) | 75 mg/L (≈ 187 µM) | – | – | – | – | 0 mm | 13 mm | 0 mm | 0 mm | 17 mm | 0 mm | 0 mm | 0 mm
CC1(C)S[C@@H]2[C@H](NC(=O)Cc3ccccc3)C(=O)N2[C@H]1C(=O)O [PENICILLIN G] | 12.5 mg/L (≈ 37.4 µM) | 12.5 mg/L (≈ 37.4 µM) | 6.25 mg/L (≈ 18.7 µM) | 1.56 mg/L (≈ 4.67 µM) | 1.56 mg/L (≈ 4.67 µM) | 3.12 mg/L (≈ 9.35 µM) | – | – | – | – | – | – | – | – | – | – | – | –
O=C1Nc2ccccc2C1C(C(=O)c1ccccc1)c1c[nH]c2ccc(Br)cc12 (stereo unspecified) | 150 mg/L (≈ 337 µM) | 18.8 mg/L (≈ 42.1 µM) | 150 mg/L (≈ 337 µM) | 150 mg/L (≈ 337 µM) | 150 mg/L (≈ 337 µM) | 150 mg/L (≈ 337 µM) | – | – | – | – | 0 mm | 0 mm | 0 mm | 0 mm | 15 mm | 0 mm | 0 mm | 0 mm
O=C1Nc2ccccc2C1C(C(=O)c1ccccc1)c1c[nH]c2ccc([N+](=O)[O-])cc12 (stereo unspecified) | 150 mg/L (≈ 365 µM) | 9.38 mg/L (≈ 22.8 µM) | 150 mg/L (≈ 365 µM) | 75 mg/L (≈ 182 µM) | 150 mg/L (≈ 365 µM) | 150 mg/L (≈ 365 µM) | – | – | – | – | 0 mm | 0 mm | 0 mm | 0 mm | 0 mm | 0 mm | 0 mm | 0 mm
COC(=O)c1ccc2[nH]cc(C(C(=O)c3ccccc3)C3C(=O)Nc4ccccc43)c2c1 (stereo unspecified) | 150 mg/L (≈ 353 µM) | 18.8 mg/L (≈ 44.2 µM) | 150 mg/L (≈ 353 µM) | 150 mg/L (≈ 353 µM) | 75 mg/L (≈ 177 µM) | 150 mg/L (≈ 353 µM) | – | – | – | – | 0 mm | 10 mm | 0 mm | 0 mm | 15 mm | 0 mm | 0 mm | 0 mm
CN[C@@H]1[C@H](O[C@H]2[C@H](O[C@H]3[C@H](O)[C@@H](O)[C@H](N=C(N)N)[C@@H](O)[C@@H]3N=C(N)N)O[C@@H](C)[C@]2(O)C=O)O[C@@H](CO)[C@H](O)[C@H]1O [STREPTOMYCIN] | 6.25 mg/L (≈ 10.7 µM) | 1.56 mg/L (≈ 2.69 µM) | 3.12 mg/L (≈ 5.37 µM) | 6.25 mg/L (≈ 10.7 µM) | 6.25 mg/L (≈ 10.7 µM) | 3.12 mg/L (≈ 5.37 µM) | – | – | – | – | – | – | – | – | – | – | – | –

Second part, led by results:

MIC (Escherichia coli) | MIC (Pseudomonas aeruginosa) | MIC (Klebsiella pneumoniae) | MIC (Bacillus subtilis) | MIC (Staphylococcus aureus) | MIC [11] | Compound | zone of inhibition at 50 µg/disc (Candida albicans [1]) | zone of inhibition at 50 µg/disc (Diutina rugosa [2]) | zone of inhibition at 50 µg/disc (Saccharomyces cerevisiae [3]) | zone of inhibition at 50 µg/disc (Aspergillus flavus [4]) | zone of inhibition at 100 µg/disc (Candida albicans [5]) | zone of inhibition at 100 µg/disc (Diutina rugosa [6]) | zone of inhibition at 100 µg/disc (Saccharomyces cerevisiae [7]) | zone of inhibition at 150 µg/disc (Candida albicans [8]) | zone of inhibition at 150 µg/disc (Diutina rugosa [9]) | zone of inhibition at 150 µg/disc (Saccharomyces cerevisiae [10]) | zone of inhibition at 100 µg/disc (Aspergillus flavus [12]) | zone of inhibition at 150 µg/disc (Aspergillus flavus [13])
150 mg/L (≈ 339 µM) | 9.38 mg/L (≈ 21.2 µM) | 150 mg/L (≈ 339 µM) | 150 mg/L (≈ 339 µM) | 75 mg/L (≈ 169 µM) | 75 mg/L (≈ 169 µM) | O=C1Nc2ccccc2C1C(C(=O)c1ccccc1)c1c(-c2ccccc2)[nH]c2ccccc12 (stereo unspecified) | – | – | – | – | 0 mm | 12 mm | 0 mm | 0 mm | 17 mm | 0 mm | 0 mm | 0 mm
150 mg/L (≈ 353 µM) | 150 mg/L (≈ 353 µM) | 150 mg/L (≈ 353 µM) | 150 mg/L (≈ 353 µM) | 150 mg/L (≈ 353 µM) | 150 mg/L (≈ 353 µM) | Cc1[nH]c2ccc([N+](=O)[O-])cc2c1C(C(=O)c1ccccc1)C1C(=O)Nc2ccccc21 (stereo unspecified) | – | – | – | – | 0 mm | 0 mm | 0 mm | 0 mm | 0 mm | 0 mm | 0 mm | 0 mm
150 mg/L (≈ 394 µM) | 18.8 mg/L (≈ 49.3 µM) | 150 mg/L (≈ 394 µM) | 150 mg/L (≈ 394 µM) | 150 mg/L (≈ 394 µM) | 150 mg/L (≈ 394 µM) | Cn1cc(C(C(=O)c2ccccc2)C2C(=O)Nc3ccccc32)c2ccccc21 (stereo unspecified) | – | – | – | – | 0 mm | 10 mm | 0 mm | 0 mm | 16 mm | 0 mm | 0 mm | 0 mm
150 mg/L (≈ 409 µM) | 9.38 mg/L (≈ 25.6 µM) | 150 mg/L (≈ 409 µM) | 75 mg/L (≈ 205 µM) | 75 mg/L (≈ 205 µM) | 150 mg/L (≈ 409 µM) | O=C1Nc2ccccc2C1C(C(=O)c1ccccc1)c1c[nH]c2ccccc12 (stereo unspecified) | – | – | – | – | 0 mm | 11 mm | 0 mm | 0 mm | 16 mm | 0 mm | 0 mm | 0 mm
150 mg/L (≈ 394 µM) | 18.8 mg/L (≈ 49.3 µM) | 150 mg/L (≈ 394 µM) | 150 mg/L (≈ 394 µM) | 37.5 mg/L (≈ 98.6 µM) | 150 mg/L (≈ 394 µM) | Cc1[nH]c2ccccc2c1C(C(=O)c1ccccc1)C1C(=O)Nc2ccccc21 (stereo unspecified) | – | – | – | – | 0 mm | 9 mm | 0 mm | 0 mm | 13 mm | 0 mm | 0 mm | 0 mm
